Bridge positions count the residues as written; N and C are the ends. Square brackets hold non-standard residues; d marks the D form. Peptide text beside a SMILES is read from it.
Tested on: H1N1 A/PR/8/1934
Details: A/PR/8/1934, 48 h

| Structure (SMILES) | IC50 [nM] |
| --- | --- |
| CC[C@@H](C)[C@H]1NC(=O)[C@@H](Cc2ccccc2)NC(=O)[C@@H]([C@H](C)O)NC(=O)[C@@H](Cc2ccccc2)NC(=O)[C@@H](Cc2c[nH]c3ccccc23)NC(=O)[C@@H](Cc2c[nH]c3ccccc23)NC(=O)[C@H](NC(=O)[C@H](CCCCN)NC(=O)[C@H](CCCCN)NC(=O)[C@H](CCCNC(=N)N)NC(=O)[C@@H](N)CCCNC(=N)N)CSSC[C@H](C(=O)O)NC(=O)[C@@H](CC(N)=O)NC1=O [PSP V A19, H-RRKKcwwftfinc-OH] (H-RRKK[dC][dW][dW][dF][dT][dF][dI][dN][dC]-OH; disulfide 5-13) | 20 |

Same assay, conditions: A/PR/8/1934, 48 h, 1 μM

| Structure (SMILES) | % Inhibition [%] |
| --- | --- |
| CC[C@@H](C)[C@H]1NC(=O)[C@@H](Cc2ccccc2)NC(=O)[C@@H]([C@H](C)O)NC(=O)[C@@H](Cc2ccccc2)NC(=O)[C@@H](Cc2c[nH]c3ccccc23)NC(=O)CNC(=O)[C@H](NC(=O)[C@H](CCCCN)NC(=O)[C@H](CCCCN)NC(=O)[C@H](CCCNC(=N)N)NC(=O)[C@@H](N)CCCNC(=N)N)CSSC[C@H](C(=O)O)NC(=O)[C@@H](CC(N)=O)NC1=O [PSP V A6, H-RRKKcGwftfinc-OH] (H-RRKK[dC]G[dW][dF][dT][dF][dI][dN][dC]-OH; disulfide 5-13) | <20 |
| CC[C@@H](C)[C@H]1NC(=O)[C@@H](Cc2ccccc2)NC(=O)[C@@H]([C@H](C)O)NC(=O)[C@@H](Cc2ccccc2)NC(=O)[C@@H](Cc2c[nH]c3ccccc23)NC(=O)[C@@H](Cc2c[nH]cn2)NC(=O)[C@H](NC(=O)[C@H](CCCCN)NC(=O)[C@H](CCCCN)NC(=O)[C@H](CCCNC(=N)N)NC(=O)[C@@H](N)CCCNC(=N)N)CSSC[C@H](C(=O)O)NC(=O)[C@@H](CC(N)=O)NC1=O [PSP V A7, H-RRKKchwitfinc-OH] (H-RRKK[dC][dH][dW][dF][dT][dF][dI][dN][dC]-OH; disulfide 5-13) | 67 |
| CC[C@@H](C)[C@H]1NC(=O)[C@@H](Cc2ccccc2)NC(=O)[C@@H]([C@H](C)O)NC(=O)[C@@H](Cc2ccccc2)NC(=O)[C@@H](Cc2c[nH]c3ccccc23)NC(=O)[C@@H]([C@H](C)CC)NC(=O)[C@H](NC(=O)[C@H](CCCCN)NC(=O)[C@H](CCCCN)NC(=O)[C@H](CCCNC(=N)N)NC(=O)[C@@H](N)CCCNC(=N)N)CSSC[C@H](C(=O)O)NC(=O)[C@@H](CC(N)=O)NC1=O [PSP V A8, H-RRKKciwftfinc-OH] (H-RRKK[dC][dI][dW][dF][dT][dF][dI][dN][dC]-OH; disulfide 5-13) | 20 |
| CC[C@@H](C)[C@H]1NC(=O)[C@@H](Cc2ccccc2)NC(=O)[C@@H]([C@H](C)O)NC(=O)[C@@H](Cc2ccccc2)NC(=O)[C@@H](Cc2c[nH]c3ccccc23)NC(=O)[C@@H](CCCCN)NC(=O)[C@H](NC(=O)[C@H](CCCCN)NC(=O)[C@H](CCCCN)NC(=O)[C@H](CCCNC(=N)N)NC(=O)[C@@H](N)CCCNC(=N)N)CSSC[C@H](C(=O)O)NC(=O)[C@@H](CC(N)=O)NC1=O [PSP V A9, H-RRKKckwftfinc-OH] (H-RRKK[dC][dK][dW][dF][dT][dF][dI][dN][dC]-OH; disulfide 5-13) | 77 |
| CC[C@@H](C)[C@H]1NC(=O)[C@@H](Cc2ccccc2)NC(=O)[C@@H]([C@H](C)O)NC(=O)[C@@H](Cc2ccccc2)NC(=O)[C@@H](Cc2c[nH]c3ccccc23)NC(=O)[C@@H](CC(C)C)NC(=O)[C@H](NC(=O)[C@H](CCCCN)NC(=O)[C@H](CCCCN)NC(=O)[C@H](CCCNC(=N)N)NC(=O)[C@@H](N)CCCNC(=N)N)CSSC[C@H](C(=O)O)NC(=O)[C@@H](CC(N)=O)NC1=O [PSP V A10, H-RRKKclwftfinc-OH] (H-RRKK[dC][dL][dW][dF][dT][dF][dI][dN][dC]-OH; disulfide 5-13) | 65 |
| CC[C@@H](C)[C@H]1NC(=O)[C@@H](Cc2ccccc2)NC(=O)[C@@H]([C@H](C)O)NC(=O)[C@@H](Cc2ccccc2)NC(=O)[C@@H](Cc2c[nH]c3ccccc23)NC(=O)[C@@H](CCSC)NC(=O)[C@H](NC(=O)[C@H](CCCCN)NC(=O)[C@H](CCCCN)NC(=O)[C@H](CCCNC(=N)N)NC(=O)[C@@H](N)CCCNC(=N)N)CSSC[C@H](C(=O)O)NC(=O)[C@@H](CC(N)=O)NC1=O [PSP V A11, M-RRKKcmwftfinc-OH] (H-RRKK[dC][dM][dW][dF][dT][dF][dI][dN][dC]-OH; disulfide 5-13; N-terminus assumed) | 92 |
| CC[C@@H](C)[C@H]1NC(=O)[C@@H](Cc2ccccc2)NC(=O)[C@@H]([C@H](C)O)NC(=O)[C@@H](Cc2ccccc2)NC(=O)[C@@H](Cc2c[nH]c3ccccc23)NC(=O)[C@@H](CC(N)=O)NC(=O)[C@H](NC(=O)[C@H](CCCCN)NC(=O)[C@H](CCCCN)NC(=O)[C@H](CCCNC(=N)N)NC(=O)[C@@H](N)CCCNC(=N)N)CSSC[C@H](C(=O)O)NC(=O)[C@@H](CC(N)=O)NC1=O [PSP V A12, H-RRKKcnwftfinc-OH] (H-RRKK[dC][dN][dW][dF][dT][dF][dI][dN][dC]-OH; disulfide 5-13) | <20 |
| CC[C@@H](C)[C@H]1NC(=O)[C@@H](Cc2ccccc2)NC(=O)[C@@H]([C@H](C)O)NC(=O)[C@@H](Cc2ccccc2)NC(=O)[C@@H](Cc2c[nH]c3ccccc23)NC(=O)[C@H]2CCCN2C(=O)[C@H](NC(=O)[C@H](CCCCN)NC(=O)[C@H](CCCCN)NC(=O)[C@H](CCCNC(=N)N)NC(=O)[C@@H](N)CCCNC(=N)N)CSSC[C@H](C(=O)O)NC(=O)[C@@H](CC(N)=O)NC1=O [PSP V A13, H-RRKKcpwftfinc-OH] (H-RRKK[dC][dP][dW][dF][dT][dF][dI][dN][dC]-OH; disulfide 5-13) | <20 |
| CC[C@@H](C)[C@H]1NC(=O)[C@@H](Cc2ccccc2)NC(=O)[C@@H]([C@H](C)O)NC(=O)[C@@H](Cc2ccccc2)NC(=O)[C@@H](Cc2c[nH]c3ccccc23)NC(=O)[C@@H](CCC(N)=O)NC(=O)[C@H](NC(=O)[C@H](CCCCN)NC(=O)[C@H](CCCCN)NC(=O)[C@H](CCCNC(=N)N)NC(=O)[C@@H](N)CCCNC(=N)N)CSSC[C@H](C(=O)O)NC(=O)[C@@H](CC(N)=O)NC1=O [PSP V A14, H-RRKKcqwftfinc-OH] (H-RRKK[dC][dQ][dW][dF][dT][dF][dI][dN][dC]-OH; disulfide 5-13) | 44 |
| CC[C@@H](C)[C@H]1NC(=O)[C@@H](Cc2ccccc2)NC(=O)[C@@H]([C@H](C)O)NC(=O)[C@@H](Cc2ccccc2)NC(=O)[C@@H](Cc2c[nH]c3ccccc23)NC(=O)[C@@H](CCCNC(=N)N)NC(=O)[C@H](NC(=O)[C@H](CCCCN)NC(=O)[C@H](CCCCN)NC(=O)[C@H](CCCNC(=N)N)NC(=O)[C@@H](N)CCCNC(=N)N)CSSC[C@H](C(=O)O)NC(=O)[C@@H](CC(N)=O)NC1=O [PSP V A15, H-RRKKcrwftfinc-OH] (H-RRKK[dC][dR][dW][dF][dT][dF][dI][dN][dC]-OH; disulfide 5-13) | 87 |
| CC[C@@H](C)[C@H]1NC(=O)[C@@H](Cc2ccccc2)NC(=O)[C@@H]([C@H](C)O)NC(=O)[C@@H](Cc2ccccc2)NC(=O)[C@@H](Cc2c[nH]c3ccccc23)NC(=O)[C@@H](CO)NC(=O)[C@H](NC(=O)[C@H](CCCCN)NC(=O)[C@H](CCCCN)NC(=O)[C@H](CCCNC(=N)N)NC(=O)[C@@H](N)CCCNC(=N)N)CSSC[C@H](C(=O)O)NC(=O)[C@@H](CC(N)=O)NC1=O [PSP V A16, H-RRKKcswftfinc-OH] (H-RRKK[dC][dS][dW][dF][dT][dF][dI][dN][dC]-OH; disulfide 5-13) | 54 |
| CC[C@@H](C)[C@H]1NC(=O)[C@@H](Cc2ccccc2)NC(=O)[C@@H]([C@H](C)O)NC(=O)[C@@H](Cc2ccccc2)NC(=O)[C@@H](Cc2c[nH]c3ccccc23)NC(=O)[C@@H](C(C)C)NC(=O)[C@H](NC(=O)[C@H](CCCCN)NC(=O)[C@H](CCCCN)NC(=O)[C@H](CCCNC(=N)N)NC(=O)[C@@H](N)CCCNC(=N)N)CSSC[C@H](C(=O)O)NC(=O)[C@@H](CC(N)=O)NC1=O [PSP V A18, H-RRKKcvwftfinc-OH] (H-RRKK[dC][dV][dW][dF][dT][dF][dI][dN][dC]-OH; disulfide 5-13) | 81 |
| CC[C@@H](C)[C@H]1NC(=O)[C@@H](Cc2ccccc2)NC(=O)[C@@H]([C@H](C)O)NC(=O)[C@@H](Cc2ccccc2)NC(=O)[C@@H](Cc2c[nH]c3ccccc23)NC(=O)[C@@H](Cc2c[nH]c3ccccc23)NC(=O)[C@H](NC(=O)[C@H](CCCCN)NC(=O)[C@H](CCCCN)NC(=O)[C@H](CCCNC(=N)N)NC(=O)[C@@H](N)CCCNC(=N)N)CSSC[C@H](C(=O)O)NC(=O)[C@@H](CC(N)=O)NC1=O [PSP V A19, H-RRKKcwwftfinc-OH] (H-RRKK[dC][dW][dW][dF][dT][dF][dI][dN][dC]-OH; disulfide 5-13) | 97 |
| CC[C@@H](C)[C@H]1NC(=O)[C@@H](Cc2ccccc2)NC(=O)[C@@H]([C@H](C)O)NC(=O)[C@@H](Cc2ccccc2)NC(=O)[C@@H](Cc2c[nH]c3ccccc23)NC(=O)[C@@H](Cc2ccc(O)cc2)NC(=O)[C@H](NC(=O)[C@H](CCCCN)NC(=O)[C@H](CCCCN)NC(=O)[C@H](CCCNC(=N)N)NC(=O)[C@@H](N)CCCNC(=N)N)CSSC[C@H](C(=O)O)NC(=O)[C@@H](CC(N)=O)NC1=O [PSP V A20, H-RRKKcywftfinc-OH] (H-RRKK[dC][dY][dW][dF][dT][dF][dI][dN][dC]-OH; disulfide 5-13) | <20 |
| CC[C@@H](C)[C@H]1NC(=O)[C@@H](Cc2ccccc2)NC(=O)[C@@H]([C@H](C)O)NC(=O)[C@@H](Cc2ccccc2)NC(=O)[C@@H](Cc2c[nH]c3ccccc23)NC(=O)[C@@H](Cc2c[nH]c3ccccc23)NC(=O)[C@H](NC(=O)[C@H](CCCCN)NC(=O)[C@H](CCCCN)NC(=O)[C@H](CCCNC(=N)N)NC(=O)[C@@H](N)CCCNC(=N)N)CSSC[C@H](C(=O)O)NC(=O)[C@@H](CS)NC1=O [PSP VI A2, H-RRKKcwwftficc-OH] (H-RRKK[dC][dW][dW][dF][dT][dF][dI][dC][dC]-OH; disulfide 5-13) | 95 |
| CC[C@@H](C)[C@H]1NC(=O)[C@@H](Cc2ccccc2)NC(=O)[C@@H]([C@H](C)O)NC(=O)[C@@H](Cc2ccccc2)NC(=O)[C@@H](Cc2c[nH]c3ccccc23)NC(=O)[C@@H](Cc2c[nH]c3ccccc23)NC(=O)[C@H](NC(=O)[C@H](CCCCN)NC(=O)[C@H](CCCCN)NC(=O)[C@H](CCCNC(=N)N)NC(=O)[C@@H](N)CCCNC(=N)N)CSSC[C@H](C(=O)O)NC(=O)[C@@H](CC(=O)O)NC1=O [PSP VI A3, H-RRKKcwwftfidc-OH] (H-RRKK[dC][dW][dW][dF][dT][dF][dI][dD][dC]-OH; disulfide 5-13) | 66 |
| CC[C@@H](C)[C@H]1NC(=O)[C@@H](Cc2ccccc2)NC(=O)[C@@H]([C@H](C)O)NC(=O)[C@@H](Cc2ccccc2)NC(=O)[C@@H](Cc2c[nH]c3ccccc23)NC(=O)[C@@H](Cc2c[nH]c3ccccc23)NC(=O)[C@H](NC(=O)[C@H](CCCCN)NC(=O)[C@H](CCCCN)NC(=O)[C@H](CCCNC(=N)N)NC(=O)[C@@H](N)CCCNC(=N)N)CSSC[C@H](C(=O)O)NC(=O)[C@@H](CCC(=O)O)NC1=O [PSP VI A4, H-RRKKcwwftfiec-OH] (H-RRKK[dC][dW][dW][dF][dT][dF][dI][dE][dC]-OH; disulfide 5-13) | 65 |
